Test results published in US5710154A, “Tetrahydrofuran antifungals” (Schering Corporation, priority 1995, dated 1998).

How the values were obtained:
[1] = Serum levels following oral dosing, mice; assay type: in vivo; settings: methyl cellulose formulation, compared to azoles of similar structure
[2] = Serum levels following oral dosing, rats; assay type: in vivo; settings: methyl cellulose formulation, compared to azoles of similar structure
[3] = Serum levels following oral dosing, dogs; assay type: in vivo; settings: methyl cellulose formulation, compared to azoles of similar structure
[4] = Serum levels following oral dosing, monkeys; assay type: in vivo; settings: methyl cellulose formulation, compared to azoles of similar structure
[5] = Serum half life and tissue distribution following O.D. dosing; assay type: in vivo, mice, rats, dogs and monkeys
Aspergillus = assay: In vitro antifungal activity, broth dilution (MIC/MFC), Aspergillus; assay type: cell-based, Aspergillus (flavus, fumigatus and other species); settings: 37 strains
Description: (§1) The in vitro antifungal activity tests were performed via conventional broth dilution methods in Sabouraud dextrose broth ("SDB") medium and Eagles Minimum Essential Medium ("EMEM") against a large number of fungi. Minimum Inhibitory Concentrations ("MICs") were measured after 24, 48 and 72 hour tests. In many cases, Minimum Fungicidial Concentrations ("MFCS") were measured after 48 and 72 hours.

Candida albicans = assay: In vitro antifungal activity, broth dilution (MIC/MFC), Candida albicans; assay type: cell-based; settings: 26 strains
Description: as §1

Candida krusei = assay: In vitro antifungal activity, broth dilution (MIC/MFC), Candida krusei; assay type: cell-based; settings: 16 strains
Description: as §1

[6] = system: Candida tropicalis & stellatoidea; assay: In vitro antifungal activity, broth dilution (MIC/MFC), Candida tropicalis & stellatoidea; assay type: cell-based; settings: 5 strains
Description: as §1

Candida glabrata = assay: In vitro antifungal activity, broth dilution (MIC/MFC), Candida glabrata; assay type: cell-based; settings: 9 strains
Description: as §1

Cryptococcus neoformans = assay: In vitro antifungal activity, broth dilution (MIC/MFC), Cryptococcus neoformans; assay type: cell-based; settings: 3 strains
Description: as §1

Dermatophytes = assay: In vitro antifungal activity, broth dilution (MIC/MFC), dermatophytes; assay type: cell-based, T. rubrum, T. mentagrophytes, and T. tonsurans; settings: 6 strains

CCC(C(C)O)n1ncn(-c2ccc(N3CCN(c4ccc(OCC5COC(Cn6cncn6)(c6ccc(F)cc6F)C5)cc4)CC3)cc2)c1=O (stereo not drawn) [drawing 21]
serum levels [1]: consistently higher serum levels
serum levels [2]: consistently higher serum levels
serum levels [3]: consistently higher serum levels
serum levels [4]: consistently higher serum levels
tissue distribution [5]: good tissue distribution

CCC(C(C)O)n1ncn(-c2ccc(N3CCN(c4ccc(OCC5COC(Cn6cncn6)(c6ccc(F)cc6F)C5)cc4)CC3)cc2)c1=O (stereo not drawn) [drawing 28]
Percentage of strains with MFCs ≤1 mcg/ml (Aspergillus): 89%
Percentage of strains with MFCs ≤1 mcg/ml (Candida albicans): 100%
Percentage of strains with MFCs ≤1 mcg/ml (Candida krusei): 100%
Percentage of strains with MFCs ≤1 mcg/ml [6]: 100%
Percentage of strains with MFCs ≤1 mcg/ml (Candida glabrata): 22%
Percentage of strains with MFCs ≤1 mcg/ml (Cryptococcus neoformans): 100%
Percentage of strains with MFCs ≤1 mcg/ml (Dermatophytes): 100%

CCC(C(C)O)n1ncn(-c2ccc(N3CCN(c4ccc(OCC5COC(Cn6cncn6)(c6ccc(F)cc6F)C5)cc4)CC3)cc2)c1=O (stereo not drawn) [drawing 32]
MIC 90 (Minimum Inhibitory Concentrations for 90% of the strains) (Aspergillus): .112 MCG/ML
MIC 90 (Minimum Inhibitory Concentrations for 90% of the strains) (Candida albicans): .139 MCG/ML
MIC 90 (Minimum Inhibitory Concentrations for 90% of the strains) (Candida krusei): .12 MCG/ML
MIC 90 (Minimum Inhibitory Concentrations for 90% of the strains) [6]: .354 MCG/ML
MIC 90 (Minimum Inhibitory Concentrations for 90% of the strains) (Candida glabrata): 28.8 MCG/ML
MIC 90 (Minimum Inhibitory Concentrations for 90% of the strains) (Dermatophytes): .707 MCG/ML

CCC(C(C)O)n1ncn(-c2ccc(N3CCN(c4ccc(OCC5COC(Cn6cncn6)(c6ccc(F)cc6F)C5)cc4)CC3)cc2)c1=O (stereo not drawn) [drawing 26]
Percentage of strains with MFCs ≤1 mcg/ml (Aspergillus): 50%
Percentage of strains with MFCs ≤1 mcg/ml (Candida albicans): 100%
Percentage of strains with MFCs ≤1 mcg/ml (Candida krusei): 88%
Percentage of strains with MFCs ≤1 mcg/ml [6]: 100%
Percentage of strains with MFCs ≤1 mcg/ml (Candida glabrata): 22%
Percentage of strains with MFCs ≤1 mcg/ml (Cryptococcus neoformans): 100%
Percentage of strains with MFCs ≤1 mcg/ml (Dermatophytes): 67%

CCC(C(C)O)n1ncn(-c2ccc(N3CCN(c4ccc(OCC5COC(Cn6cncn6)(c6ccc(F)cc6F)C5)cc4)CC3)cc2)c1=O (stereo not drawn) [drawing 31]
MIC 90 (Minimum Inhibitory Concentrations for 90% of the strains) (Aspergillus): .096 MCG/ML
MIC 90 (Minimum Inhibitory Concentrations for 90% of the strains) (Candida albicans): .174 MCG/ML
MIC 90 (Minimum Inhibitory Concentrations for 90% of the strains) (Candida krusei): .014 MCG/ML
MIC 90 (Minimum Inhibitory Concentrations for 90% of the strains) [6]: .117 MCG/ML
MIC 90 (Minimum Inhibitory Concentrations for 90% of the strains) (Candida glabrata): 17.1 MCG/ML
MIC 90 (Minimum Inhibitory Concentrations for 90% of the strains) (Cryptococcus neoformans): .007 MCG/ML
MIC 90 (Minimum Inhibitory Concentrations for 90% of the strains) (Dermatophytes): .101 MCG/ML

CCC(C(C)O)n1ncn(-c2ccc(N3CCN(c4ccc(OCC5COC(Cn6cncn6)(c6ccc(F)cc6F)C5)cc4)CC3)cc2)c1=O (stereo not drawn) [drawing 30]
MIC 90 (Minimum Inhibitory Concentrations for 90% of the strains) (Candida krusei): .058 MCG/ML
MIC 90 (Minimum Inhibitory Concentrations for 90% of the strains) [6]: .117 MCG/ML
MIC 90 (Minimum Inhibitory Concentrations for 90% of the strains) (Cryptococcus neoformans): .05 MCG/ML
MIC 90 (Minimum Inhibitory Concentrations for 90% of the strains) (Dermatophytes): .165 MCG/ML

CCC(C(C)O)n1ncn(-c2ccc(N3CCN(c4ccc(OCC5COC(Cn6cncn6)(c6ccc(F)cc6F)C5)cc4)CC3)cc2)c1=O (stereo not drawn) [drawing 27]
Percentage of strains with MFCs ≤1 mcg/ml (Aspergillus): 62%
Percentage of strains with MFCs ≤1 mcg/ml (Candida albicans): 100%
Percentage of strains with MFCs ≤1 mcg/ml (Candida krusei): 94%
Percentage of strains with MFCs ≤1 mcg/ml [6]: 100%
Percentage of strains with MFCs ≤1 mcg/ml (Candida glabrata): 22%
Percentage of strains with MFCs ≤1 mcg/ml (Cryptococcus neoformans): 100%
Percentage of strains with MFCs ≤1 mcg/ml (Dermatophytes): 83%

OC(Cn1cncn1)(Cn1cncn1)c1ccc(F)cc1F [fluconazole, reference compound]
Percentage of strains with MFCs ≤1 mcg/ml (Aspergillus): 0%
Percentage of strains with MICs ≤1 mcg/ml (Aspergillus): 0%
Percentage of strains with MFCs ≤1 mcg/ml (Candida albicans): 100%
Percentage of strains with MICs ≤1 mcg/ml (Candida albicans): 100%
Percentage of strains with MFCs ≤1 mcg/ml (Candida krusei): 0%
Percentage of strains with MICs ≤1 mcg/ml (Candida krusei): 0%
Percentage of strains with MFCs ≤1 mcg/ml [6]: 100%
Percentage of strains with MICs ≤1 mcg/ml [6]: 100%
Percentage of strains with MFCs ≤1 mcg/ml (Candida glabrata): 0%
Percentage of strains with MICs ≤1 mcg/ml (Candida glabrata): 0%
Percentage of strains with MFCs ≤1 mcg/ml (Cryptococcus neoformans): 0%
Percentage of strains with MICs ≤1 mcg/ml (Cryptococcus neoformans): 0%
Percentage of strains with MFCs ≤1 mcg/ml (Dermatophytes): 0%
Percentage of strains with MICs ≤1 mcg/ml (Dermatophytes): 100%
